Source: article PMC7504435, “Combined Protein- and Ligand-Observed NMR Workflow to Screen Fragment Cocktails against Multiple Proteins: A Case Study Using Bromodomains” (Molecules, 2020)

Tests used:
BRD4 D1 = settings: data from previous screen; cited from earlier work
BPTF bromodomain [1] = molecular target: T1, BPTF bromodomain (Homo sapiens, UniProt Q12830); experiment: PrOF NMR (dual-protein screen of mixtures, titrations) with 5FW-BPTF; type: binding; design: against the bromodomains of BPTF and Plasmodium falciparum GCN5 (PfGCN5); his6; made in house; settings: hit mixture containing the fragment, 400 µM each fragment
Protocol: The screening workflow consists of two dependent steps: 1) a PrOF NMR screen of the 5FW-labeled proteins and a cocktail of 4–5 fragments in a single NMR tube; 2) a ^1H CPMG NMR binding assay to deconvolute the hit mixtures for each protein (Figure 1). In the first step, a dual-protein PrOF NMR spectrum was obtained in which 5FW-PfGCN5, 5FW-BPTF (~ 50 µM each) and mixtures of fragments (400 µM individual fragment) were present in the same NMR tube. […] Chemical shift perturbations indicating a ligand binding event were based on a prior cutoff of Δδ ≥ 0.030 ppm as the definition for a hit mixture. This cutoff was based on a statistical analysis of chemical shift perturbations from a prior BRD4 D1 fragment screen and are described further in the experimental section and in Table S2.
PrOF NMR. PrOF NMR spectra were obtained on a Bruker Avance III HD 500 with the 5 mm Prodigy TCI inverse cryoprobe (^19F S:N 2000:1). […] The DMSO concentration for all experiments was kept constant at 1%. […] For the PrOF NMR screen, 5FW-BPTF and 5FW-PfGCN5 (35–40 µM in 50 mM phosphate, 100 mM NaCl, pH 7.4) were tested with mixtures of 4–5 fragments, where each individual fragment was 400 µM. […] A 10 Hz line broadening was applied. Titrations were fit to Equation (2), where p is the protein concentration and L is the ligand concentration. (2) Δδ=Δδmax × (Kd+P+L ) − (((Kd + P + L )^2) − 4PL)/2P
A PrOF NMR binding event is characterized as a change in chemical shift (Δδ) from the protein-only spectrum to the protein + fragment mixture spectrum. We used a prior cutoff of Δδ ≥ 0.030 ppm as the definition of a hit mixture, based on a statistical analysis of chemical shift perturbations from a prior BRD4 D1 fragment screen.

BPTF bromodomain [2] = molecular target: T1, BPTF bromodomain; design: against the bromodomains of BPTF and Plasmodium falciparum GCN5 (PfGCN5); his6; made in house; settings: cited from earlier work
BPTF bromodomain [3] = molecular target: T1, BPTF bromodomain; experiment: 1H CPMG NMR deconvolution of hit mixtures, BPTF; type: binding; design: deconvolution of the hit mixtures using the non-fluorine-labeled bromodomains; made in house; host or cells: E. coli BL21(DE3); settings: 10 µM protein, 100 µM ligand
Protocol: The second step is a ^1H CPMG NMR deconvolution of the hit mixtures using the non-fluorine-labeled bromodomains. ^1H CPMG NMR employs a T2 filter to take advantage of the difference in transverse relaxation time between protein and small molecules to filter out the bound-state ligand(s). Unlike the PrOF NMR assay, a single protein is assayed in each experiment. A binding event is characterized by a decrease in ligand resonance intensity from the ligand alone spectrum to the ligand + protein spectrum. A hit is defined as a decrease in resonance intensity ≥ 20%. The ^1H CPMG NMR assay can be tuned by changing the protein or ligand concentration, filter length (Figure 1), or hit criteria depending on how stringent the desired hit rate is. The number of ^1H CPMG NMR deconvolution experiments is directly informed from the first step. If a mixture from the first step was only a hit for one protein, a single ^1H CPMG NMR deconvolution experiment is needed. If a mixture from the first step was a hit for both proteins, two separate ^1H CPMG NMR deconvolutions experiments are needed to determine the fragments that bind to each protein.
^1H CPMG NMR. ^1H CPMG NMR screen data were acquired on Bruker Avance III HD 500 with the 5 mm Prodigy TCI cryoprobe inverse cryoprobe (^1H 2500:1 S/N). Competition ^1H CPMG NMR data were acquired on Bruker 700 MHz Avance with a CryoProbe 5 mm TXI (^1H S:N with H2O suppression (2mM sucrose) - 900:1) and excitation sculpting water suppression. Proteins were present at 10 µM in 50 mM phosphate, 100 mM NaCl, pH 7.4 in 100% D2O. In separate NMR tubes, a ^1H CPMG NMR pulse was applied to a 1) mixture of ligands (individual ligands present at 100 µM for the screen and 50 µM for competition experiments) and 2) ligands + protein. […] For the competition experiments, τ was increased to 4.0 ms.

Compound: Nc1ccc2c(c1)N(C(=O)C1CC1)CCC2 [Fragment 9]
- Kd (BRD4 D1): 50 µM
- Initial Mixture BPTF PrOF NMR Δδ (BPTF bromodomain [1]): ++++ (++++ = Δδ > 0.2)
- single-point PrOF NMR Δδ with BPTF (BPTF bromodomain [2]; 400 µM 9, previous screen): 0.453 ppm
- Kd (BPTF bromodomain [2]; via PrOF NMR): 180 µM
- BPTF CPMG % decrease (BPTF bromodomain [3]): 100%
- 1H CPMG NMR % Drop in Resonance Intensity BPTF (BPTF bromodomain [3]; for 9 from competition experiments (footnote a)): ++++ ^a (++++ = 80–99.9%)
